Experimental data taken from patent US12643903B2, “Bifunctional compounds for degradation of EGFR and related methods of use” (BeiGene, Ltd., priority 2020, dated 2026).

Key:
Assay type in all cases: cell-based
Conditions in all cases: 16 h treatment, EGFR degradation by HTRF
EGFR [1] = target: T1, EGFR (Homo sapiens, UniProt P00533, L858R/T790M); assay: Cell Degradation 1: EGFR degradation in H1975 cells, HTRF assay
T1 construct: endogenous in cells; host or cells: H1975
Procedure, shortened: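 H1975 cells treated with compound for 16 h, lysed 1 h at room temperature. EGFR measured by HTRF after overnight antibody incubation (665/620 nm). DC50 from four-parameter logistic fit of percent inhibition against concentration.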

EGFR LTC = target: T2, EGFR LTC (Homo sapiens, UniProt P00533, C797S/L858R/T790M); assay: Cell Degradation 3: EGFR degradation in BaF3 cells (LTC), HTRF assay
T2 construct: expressed in transfected cells; host or cells: BaF3
T2 sequence (P00533 25-1210 T790M/C797S/L858R): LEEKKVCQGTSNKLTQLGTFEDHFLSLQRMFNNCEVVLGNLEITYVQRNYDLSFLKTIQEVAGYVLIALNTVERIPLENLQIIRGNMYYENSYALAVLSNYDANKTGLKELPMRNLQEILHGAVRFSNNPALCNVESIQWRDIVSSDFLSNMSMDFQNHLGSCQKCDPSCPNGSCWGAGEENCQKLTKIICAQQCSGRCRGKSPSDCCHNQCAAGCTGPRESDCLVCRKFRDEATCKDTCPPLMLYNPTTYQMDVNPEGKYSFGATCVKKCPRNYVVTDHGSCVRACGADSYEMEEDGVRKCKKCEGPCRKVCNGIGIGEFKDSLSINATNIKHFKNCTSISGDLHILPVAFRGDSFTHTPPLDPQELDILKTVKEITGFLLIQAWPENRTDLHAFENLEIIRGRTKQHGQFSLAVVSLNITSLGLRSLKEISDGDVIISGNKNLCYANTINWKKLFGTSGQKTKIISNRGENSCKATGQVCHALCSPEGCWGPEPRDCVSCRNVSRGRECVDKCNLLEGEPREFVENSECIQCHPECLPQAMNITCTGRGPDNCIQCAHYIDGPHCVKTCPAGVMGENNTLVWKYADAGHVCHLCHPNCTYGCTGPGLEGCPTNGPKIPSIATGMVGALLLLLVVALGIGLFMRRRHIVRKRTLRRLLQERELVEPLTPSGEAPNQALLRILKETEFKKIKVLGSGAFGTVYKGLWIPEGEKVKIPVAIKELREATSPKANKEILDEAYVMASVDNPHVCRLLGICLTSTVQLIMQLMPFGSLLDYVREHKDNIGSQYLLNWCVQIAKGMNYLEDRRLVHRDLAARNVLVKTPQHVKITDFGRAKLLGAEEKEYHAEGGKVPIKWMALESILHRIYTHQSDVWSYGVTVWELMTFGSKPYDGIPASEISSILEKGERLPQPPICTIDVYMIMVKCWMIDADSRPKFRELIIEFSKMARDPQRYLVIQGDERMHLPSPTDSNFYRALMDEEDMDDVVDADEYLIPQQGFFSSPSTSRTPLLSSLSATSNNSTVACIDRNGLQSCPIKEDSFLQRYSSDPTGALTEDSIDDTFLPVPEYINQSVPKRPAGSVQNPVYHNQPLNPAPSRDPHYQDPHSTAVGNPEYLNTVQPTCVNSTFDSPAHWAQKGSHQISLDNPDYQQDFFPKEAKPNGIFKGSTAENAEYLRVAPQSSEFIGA
Procedure, shortened: (§1)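 BaF3 cells expressing EGFR (LTC triple mutant C797S/L858R/T790M or DTC) exposed to compounds for 16 h, 8 doses from 4-fold dilution, 0.2% DMSO. Residual EGFR quantified by HTRF in lysates (triple mutant lysate diluted 1:1); DC50 from four-parameter logistic fit.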

EGFR [2] = target: T3, EGFR (Homo sapiens, UniProt P00533, DEL746-750); assay: Cell Degradation 2: EGFR degradation in HCC827 cells, HTRF assay
T3 construct: endogenous in cells; host or cells: HCC827
T3 sequence (P00533 with tags, fused parts or gaps DEL746-750): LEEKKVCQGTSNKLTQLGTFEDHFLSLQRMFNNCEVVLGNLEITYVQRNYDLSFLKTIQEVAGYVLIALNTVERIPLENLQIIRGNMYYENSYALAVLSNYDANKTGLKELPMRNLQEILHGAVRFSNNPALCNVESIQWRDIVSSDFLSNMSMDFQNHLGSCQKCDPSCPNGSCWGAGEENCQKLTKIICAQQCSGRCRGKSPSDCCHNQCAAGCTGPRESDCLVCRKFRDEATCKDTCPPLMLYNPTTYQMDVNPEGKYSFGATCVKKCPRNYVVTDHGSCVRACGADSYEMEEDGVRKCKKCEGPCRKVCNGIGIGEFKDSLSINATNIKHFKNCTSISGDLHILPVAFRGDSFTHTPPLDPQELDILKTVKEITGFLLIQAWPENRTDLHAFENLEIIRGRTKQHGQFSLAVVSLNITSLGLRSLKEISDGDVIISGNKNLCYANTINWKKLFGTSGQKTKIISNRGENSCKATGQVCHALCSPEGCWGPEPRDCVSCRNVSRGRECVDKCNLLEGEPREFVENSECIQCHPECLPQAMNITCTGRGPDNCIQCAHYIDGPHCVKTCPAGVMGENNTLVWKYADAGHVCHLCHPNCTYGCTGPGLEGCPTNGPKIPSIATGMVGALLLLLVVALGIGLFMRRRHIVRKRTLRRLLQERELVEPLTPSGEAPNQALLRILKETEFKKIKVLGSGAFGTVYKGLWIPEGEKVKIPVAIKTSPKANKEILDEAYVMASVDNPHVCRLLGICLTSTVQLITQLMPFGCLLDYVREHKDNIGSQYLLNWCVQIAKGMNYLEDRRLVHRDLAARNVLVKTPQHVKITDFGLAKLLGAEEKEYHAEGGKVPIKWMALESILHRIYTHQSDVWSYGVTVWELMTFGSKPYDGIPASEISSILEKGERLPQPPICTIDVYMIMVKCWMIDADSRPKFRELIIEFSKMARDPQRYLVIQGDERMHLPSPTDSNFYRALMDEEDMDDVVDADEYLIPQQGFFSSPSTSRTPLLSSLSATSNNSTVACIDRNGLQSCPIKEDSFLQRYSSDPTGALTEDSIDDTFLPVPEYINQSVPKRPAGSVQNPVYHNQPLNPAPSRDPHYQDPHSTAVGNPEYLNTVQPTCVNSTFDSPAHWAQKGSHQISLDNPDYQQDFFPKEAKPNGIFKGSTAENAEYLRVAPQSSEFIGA
T3 sequence (Q96SW2 whole entry partner): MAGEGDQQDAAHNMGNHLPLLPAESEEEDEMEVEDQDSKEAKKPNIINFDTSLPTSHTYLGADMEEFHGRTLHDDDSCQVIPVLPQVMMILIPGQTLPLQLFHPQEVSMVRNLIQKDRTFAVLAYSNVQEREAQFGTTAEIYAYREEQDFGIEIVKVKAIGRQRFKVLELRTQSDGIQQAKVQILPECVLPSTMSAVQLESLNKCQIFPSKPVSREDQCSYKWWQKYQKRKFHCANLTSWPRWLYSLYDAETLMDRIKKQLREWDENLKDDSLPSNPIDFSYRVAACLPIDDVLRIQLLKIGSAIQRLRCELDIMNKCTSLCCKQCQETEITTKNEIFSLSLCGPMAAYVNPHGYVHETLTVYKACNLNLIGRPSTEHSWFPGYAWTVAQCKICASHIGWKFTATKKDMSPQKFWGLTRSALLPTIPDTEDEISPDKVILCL
Procedure, shortened: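 Compound-treated HCC827 cells were lysed after 16 h and EGFR measured by HTRF (337 nm excitation, 665/620 nm emission) after overnight antibody incubation at room temperature. DC50 came from a four-parameter fit of percent inhibition against compound concentration.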

EGFR DTC = assay: Cell Degradation 3: EGFR degradation in BaF3 cells (DTC), HTRF assay
Procedure, shortened: as §1

T1 sequence (P00533 25-1210 T790M/L858R): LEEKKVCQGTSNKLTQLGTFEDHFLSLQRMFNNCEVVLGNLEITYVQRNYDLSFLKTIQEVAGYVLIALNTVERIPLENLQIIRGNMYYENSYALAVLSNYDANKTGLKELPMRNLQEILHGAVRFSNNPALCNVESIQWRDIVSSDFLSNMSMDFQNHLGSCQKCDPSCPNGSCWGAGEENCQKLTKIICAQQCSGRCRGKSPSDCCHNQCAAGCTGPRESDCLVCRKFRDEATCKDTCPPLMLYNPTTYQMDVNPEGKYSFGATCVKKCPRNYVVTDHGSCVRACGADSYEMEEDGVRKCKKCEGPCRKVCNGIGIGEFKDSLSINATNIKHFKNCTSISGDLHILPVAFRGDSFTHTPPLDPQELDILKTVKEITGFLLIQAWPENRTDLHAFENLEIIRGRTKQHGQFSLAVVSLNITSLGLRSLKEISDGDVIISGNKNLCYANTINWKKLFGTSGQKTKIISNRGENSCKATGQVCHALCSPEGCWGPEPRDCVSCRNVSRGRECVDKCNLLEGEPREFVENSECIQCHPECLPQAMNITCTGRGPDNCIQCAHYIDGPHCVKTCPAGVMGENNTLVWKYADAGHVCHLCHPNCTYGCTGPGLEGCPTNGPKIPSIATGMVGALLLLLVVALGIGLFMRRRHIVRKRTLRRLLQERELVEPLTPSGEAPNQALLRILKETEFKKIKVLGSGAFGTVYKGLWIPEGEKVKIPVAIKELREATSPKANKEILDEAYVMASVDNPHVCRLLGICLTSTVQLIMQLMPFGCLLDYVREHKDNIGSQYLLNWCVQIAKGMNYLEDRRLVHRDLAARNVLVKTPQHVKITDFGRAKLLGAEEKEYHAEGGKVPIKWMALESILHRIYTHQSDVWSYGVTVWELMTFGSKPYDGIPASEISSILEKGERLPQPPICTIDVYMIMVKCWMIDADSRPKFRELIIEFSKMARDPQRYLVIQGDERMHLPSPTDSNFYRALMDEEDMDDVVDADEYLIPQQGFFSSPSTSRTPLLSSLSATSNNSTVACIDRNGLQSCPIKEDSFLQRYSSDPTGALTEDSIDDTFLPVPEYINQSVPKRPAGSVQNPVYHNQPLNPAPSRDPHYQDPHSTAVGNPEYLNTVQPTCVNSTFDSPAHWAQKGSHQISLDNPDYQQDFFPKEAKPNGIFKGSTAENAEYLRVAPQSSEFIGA

Row | Compound | DC50 (EGFR [1]) | DC50 (EGFR LTC) | DC50 (EGFR [2]) | DC50 (EGFR DTC)
1 | COc1cc(N2CCC(N3CCN(CCC4CCN(c5ccc6c(c5)C(=O)N(C5CCC(=O)NC5=O)C6=O)CC4)CC3)CC2)ccc1Nc1ncc(Cl)c(Nc2cccc3c2N(S(C)(=O)=O)CC3)n1 (stereo not shown) [Example 37, 5-(4-(2-(4-(1-(4-((5-chloro-4-((1-(methylsulfonyl)indolin-7-yl)amino)pyrimidin-2-yl)amino)-3-methoxyphenyl)piperidin-4-yl)piperazin-1-yl)ethyl)piperidin-1-yl)-2-(2,6-dioxopiperidin-3-yl)isoindoline-1,3-dione] | 3.8 nM | 43.1 nM | 3.5 nM | 16.7 nM
2 | COc1cc(N2CCN(C3CCN(CCc4ccc(C5CCC(=O)NC5=O)cc4)CC3)CC2)ccc1Nc1ncc(Cl)c(Nc2cccc3c2N(S(C)(=O)=O)CC3)n1 (stereo not shown) [Example 38, 3-(4-(2-(4-(4-(4-((5-chloro-4-((1-(methylsulfonyl)indolin-7-yl)amino)pyrimidin-2-yl)amino)-3-methoxyphenyl)piperazin-1-yl)piperidin-1-yl)ethyl)phenyl)piperidine-2,6-dione] | 9.8 nM | 230 nM | 9.7 nM | 176 nM
3 | COc1cc(N2CCC(N3CCN(CCc4ccc(C5CCC(=O)NC5=O)cc4)CC3)CC2)c(C)cc1Nc1ncc(Br)c(Nc2cccc3c2N(S(C)(=O)=O)CC3)n1 (stereo not shown) [Example 39, 3-(4-(2-(4-(1-(4-((5-bromo-4-((1-(methylsulfonyl)indolin-7-yl)amino)pyrimidin-2-yl)amino)-5-methoxy-2-methylphenyl)piperidin-4-yl)piperazin-1-yl)ethyl)phenyl)piperidine-2,6-dione] | 12.1 nM | 157 nM | 13.6 nM | 33.7 nM
4 | CS(=O)(=O)N1CCc2cccc(Nc3nc(Nc4ccc(N5CCC(N6CCN(CCc7ccc(C8CCC(=O)NC8=O)cc7)CC6)CC5)c(F)c4)ncc3Cl)c21 (stereo not shown) [Example 45, 3-(4-(2-(4-(1-(4-((5-chloro-4-((1-(methylsulfonyl)indolin-7-yl)amino)pyrimidin-2-yl)amino)-2-fluorophenyl)piperidin-4-yl)piperazin-1-yl)ethyl)phenyl)piperidine-2,6-dione] | 2.3 nM | 17.3 nM | 6.7 nM | 9.9 nM
5 | CS(=O)(=O)N1CCc2cccc(Nc3nc(Nc4ccc(N5CCC(N6CCN(CCc7ccc(C8CCC(=O)NC8=O)c(F)c7)CC6)CC5)c5c4OCC5)ncc3Cl)c21 (stereo not shown) [Example 53, 3-(4-(2-(4-(1-(7-((5-chloro-4-((1-(methylsulfonyl)indolin-7-yl)amino)pyrimidin-2-yl)amino)-2,3-dihydrobenzofuran-4-yl)piperidin-4-yl)piperazin-1-yl)ethyl)-2-fluorophenyl)piperidine-2,6-dione] | 2.6 nM | 35.7 nM | 3.7 nM | 21.8 nM
6 | CS(=O)(=O)N1CCc2cccc(Nc3nc(Nc4ccc(N5CCC(N6CCN(CCC7CCN(c8ccc(C9CCC(=O)NC9=O)cc8)CC7)CC6)CC5)c5c4OCC5)ncc3Cl)c21 (stereo not shown) [Example 54, 3-(4-(4-(2-(4-(1-(7-((5-chloro-4-((1-(methylsulfonyl)indolin-7-yl)amino)pyrimidin-2-yl)amino)-2,3-dihydrobenzofuran-4-yl)piperidin-4-yl)piperazin-1-yl)ethyl)piperidin-1-yl)phenyl)piperidine-2,6-dione] | 8.9 nM | 443 nM | 8.9 nM | 120 nM
7 | COc1cc(N2CCN(CCC3CCN(c4ccc(C5CCC(=O)NC5=O)cc4)CC3)CC2)ccc1Nc1ncc(Cl)c(Nc2cccc3c2N(S(C)(=O)=O)CC3)n1 (stereo not shown) [Example 56, 3-(4-(4-(2-(4-(4-((5-chloro-4-((1-(methylsulfonyl)indolin-7-yl)amino)pyrimidin-2-yl)amino)-3-methoxyphenyl)piperazin-1-yl)ethyl)piperidin-1-yl)phenyl)piperidine-2,6-dione] | 13.5 nM | 233 nM | 5.8 nM | 23.6 nM
8 | CS(=O)(=O)N1CCc2cccc(Nc3nc(Nc4ccc(N5CCC(N6CCN(C(=O)[C@@H]7CCN(c8ccc9c(c8)C(=O)N(C8CCC(=O)NC8=O)C9=O)C7)CC6)CC5)c(F)c4)nc4[nH]ccc34)c21 (stereo partly drawn) [Example 62, 2-(2,6-dioxopiperidin-3-yl)-5-((R)-3-(4-(1-(2-fluoro-4-((4-((1-(methylsulfonyl)indolin-7-yl)amino)-7H-pyrrolo[2,3-d]pyrimidin-2-yl)amino)phenyl)piperidin-4-yl)piperazine-1-carbonyl)pyrrolidin-1-yl)isoindoline-1,3-dione] | 4.4 nM | 4.7 nM | 22.1 nM | 3 nM
9 | CS(=O)(=O)N1CCc2cccc(Nc3nc(Nc4ccc(N5CCC(N6CCN(CCC7CCN(c8cc(F)c(C9CCC(=O)NC9=O)c(F)c8)CC7)CC6)CC5)c(F)c4)nc4[nH]ccc34)c21 (stereo not shown) [Example 67, 3-(2,6-difluoro-4-(4-(2-(4-(1-(2-fluoro-4-((4-((1-(methylsulfonyl)indolin-7-yl)amino)-7H-pyrrolo[2,3-d]pyrimidin-2-yl)amino)phenyl)piperidin-4-yl)piperazin-1-yl)ethyl)piperidin-1-yl)phenyl)piperidine-2,6-dione] | 13.8 nM | 15.7 nM | 3.5 nM | 11.7 nM

Continued, values first:

Row | DC50 (EGFR [1]) | DC50 (EGFR LTC) | DC50 (EGFR [2]) | DC50 (EGFR DTC) | Compound
10 | 3.7 nM | 4.4 nM | 17.6 nM | 3 nM | CS(=O)(=O)N1CCc2cccc(Nc3nc(Nc4ccc(N5CCC(N6CCN(CCc7cc(F)c(C8CCC(=O)NC8=O)c(F)c7)CC6)CC5)c(F)c4)nc4[nH]ccc34)c21 (stereo not shown) [Example 68, 3-(2,6-difluoro-4-(2-(4-(1-(2-fluoro-4-((4-((1-(methylsulfonyl)indolin-7-yl)amino)-7H-pyrrolo[2,3-d]pyrimidin-2-yl)amino)phenyl)piperidin-4-yl)piperazin-1-yl)ethyl)phenyl)piperidine-2,6-dione]
11 | 3.4 nM | 8 nM | 3.3 nM | 4.8 nM | CS(=O)(=O)N1CCc2cccc(Nc3nc(Nc4ccc(N5CCC(N6CCN(CC7CN(c8ccc9c(c8)C(=O)N(C8CCC(=O)NC8=O)C9=O)C7)CC6)CC5)c(F)c4)ncc3Cl)c21 (stereo not shown) [Example 76, 5-(3-((4-(1-(4-((5-chloro-4-((1-(methylsulfonyl)indolin-7-yl)amino)pyrimidin-2-yl)amino)-2-fluorophenyl)piperidin-4-yl)piperazin-1-yl)methyl)azetidin-1-yl)-2-(2,6-dioxopiperidin-3-yl)isoindoline-1,3-dione]
12 | 2.3 nM | 2.7 nM | 1.7 nM | 1.8 nM | CS(=O)(=O)N1CCc2cccc(Nc3nc(Nc4ccc(N5CCC(N6CCN(C(=O)C7CN(c8ccc9c(c8)C(=O)N(C8CCC(=O)NC8=O)C9=O)C7)CC6)CC5)c(F)c4)ncc3Cl)c21 (stereo not shown) [Example 77, 5-(3-(4-(1-(4-((5-chloro-4-((1-(methylsulfonyl)indolin-7-yl)amino)pyrimidin-2-yl)amino)-2-fluorophenyl)piperidin-4-yl)piperazine-1-carbonyl)azetidin-1-yl)-2-(2,6-dioxopiperidin-3-yl)isoindoline-1,3-dione]
13 | 6 nM | 84.6 nM | 5.5 nM | 49.6 nM | CS(=O)(=O)N1CCc2cccc(Nc3nc(Nc4ccc(N5CCC(N6CCN(CCC7CCN(c8ccc(C9CCC(=O)NC9=O)cc8)CC7)CC6)CC5)c(F)c4)ncc3Cl)c21 (stereo not shown) [Example 79, 3-(4-(4-(2-(4-(1-(4-((5-chloro-4-((1-(methylsulfonyl)indolin-7-yl)amino)pyrimidin-2-yl)amino)-2-fluorophenyl)piperidin-4-yl)piperazin-1-yl)ethyl)piperidin-1-yl)phenyl)piperidine-2,6-dione]
14 | 5.5 nM | 12.2 nM | 4.3 nM | 6.5 nM | CS(=O)(=O)N1CCc2cccc(Nc3nc(Nc4ccc(N5CCC(N6CCN(CCC7CCN(c8ccc(C9CCC(=O)NC9=O)c(F)c8)CC7)CC6)CC5)c(F)c4)ncc3Cl)c21 (stereo not shown) [Example 80, 3-(4-(4-(2-(4-(1-(4-((5-chloro-4-((1-(methylsulfonyl)indolin-7-yl)amino)pyrimidin-2-yl)amino)-2-fluorophenyl)piperidin-4-yl)piperazin-1-yl)ethyl)piperidin-1-yl)-2-fluorophenyl)piperidine-2,6-dione]
15 | 3.2 nM | 15.1 nM | 2.8 nM | 3.5 nM | CS(=O)(=O)N1CCc2cccc(Nc3nc(Nc4ccc(N5CCC(N6CCN(C(=O)[C@H]7CCN(c8ccc9c(c8)C(=O)N(C8CCC(=O)NC8=O)C9=O)C7)CC6)CC5)c(F)c4)ncc3Cl)c21 (stereo partly drawn) [Example 82, 5-((S)-3-(4-(1-(4-((5-chloro-4-((1-(methylsulfonyl)indolin-7-yl)amino)pyrimidin-2-yl)amino)-2-fluorophenyl)piperidin-4-yl)piperazine-1-carbonyl)pyrrolidin-1-yl)-2-(2,6-dioxopiperidin-3-yl)isoindoline-1,3-dione]
16 | 3.2 nM | 14.6 nM | 3 nM | 5.9 nM | CS(=O)(=O)N1CCc2cccc(Nc3nc(Nc4ccc(N5CCC(N6CCN(C(=O)[C@@H]7CCN(c8ccc9c(c8)C(=O)N(C8CCC(=O)NC8=O)C9=O)C7)CC6)CC5)c(F)c4)ncc3Cl)c21 (stereo partly drawn) [Example 83, 5-((R)-3-(4-(1-(4-((5-chloro-4-((1-(methylsulfonyl)indolin-7-yl)amino)pyrimidin-2-yl)amino)-2-fluorophenyl)piperidin-4-yl)piperazine-1-carbonyl)pyrrolidin-1-yl)-2-(2,6-dioxopiperidin-3-yl)isoindoline-1,3-dione]
